# Laboratory results reported in PubChem BioAssay AID1745844 (Carcinogenic Potency Database (CPDB), 2022).
# The source made the active and inactive calls. How the calls were made is not given here.
# System: rodent lifetime carcinogenesis bioassay, tumor incidence TD50
# Assay: carcinogenic potency in animals, long-term in vivo studies, CPDB compilation (AID 1745844)
smiles,measurement,setting,value
CC(C)NCC(O)c1ccc2ccccc2c1 (centres undefined),carcinogen call,"mouse, strain CF-1, females, in feed, site: liver, lesion: one or several types, types not named, dosed 78 weeks, study length 78 weeks",negative (inactive)
same,TD50,"mouse, strain CF-1, females, in feed, site: lung, lesion: adenoma, dosed 78 weeks, study length 78 weeks",1300 mg/kg/day (inactive)
same,TD50,"mouse, strain CF-1, males, in feed, site: liver, lesion: adenoma, dosed 78 weeks, study length 78 weeks",1820 mg/kg/day (inactive)
same,carcinogen call,"mouse, strain CF-1, males, in feed, site: liver, lesion: carcinoma, dosed 78 weeks, study length 78 weeks",negative (inactive)
same,TD50,"mouse, strain CF-1, males, in feed, site: lung, lesion: adenoma, dosed 78 weeks, study length 78 weeks",931 mg/kg/day (inactive)
same,TD50,"mouse, strain Not specified, females, in feed, site: thymus gland, lesion: one or several types, types not named, dosed 64 weeks, study length 64 weeks",408 mg/kg/day
same,TD50,"mouse, strain Not specified, males, in feed, site: thymus gland, lesion: one or several types, types not named, dosed 64 weeks, study length 64 weeks",1930 mg/kg/day
COc1ccc(C(Cl)=C(c2ccc(OC)cc2)c2ccc(OC)cc2)cc1,carcinogen call,"rat, strain Charles River CD (Sprague-Dawley), females, in feed, site: liver, lesion: one or several types, types not named, dosed 104 weeks, study length 104 weeks",negative (inactive)
same,carcinogen call,"rat, strain Charles River CD (Sprague-Dawley), males, in feed, site: liver, lesion: one or several types, types not named, dosed 104 weeks, study length 104 weeks",negative (inactive)
CC1=C2C(=CO[C@H](C)[C@H]2C)C(=O)C(C(=O)O)=C1O,carcinogen call,"rat, strain Fischer 344, males, in feed, site: kidney, lesion: clear-cell adenoma, dosed 60 weeks, study length 60 weeks",positive
same,carcinogen call,"rat, strain Fischer 344, males, in feed, site: kidney, lesion: clear-cell adenoma, dosed 80 weeks, study length 80 weeks",positive
C[C@@H]1Cc2c(Cl)cc(C(=O)N[C@@H](Cc3ccccc3)C(=O)O)c(O)c2C(=O)O1,TD50,"mouse, strain B6C3F1, females, in feed, site: liver, lesion: hepatocellular adenoma, dosed 104 weeks, study length 104 weeks",109 mg/kg/day
same,TD50,"mouse, strain B6C3F1, females, in feed, site: liver, lesion: hepatocellular carcinoma, dosed 104 weeks, study length 104 weeks",34.8 mg/kg/day
same,TD50,"mouse, strain B6C3F1, males, in feed, site: kidney, lesion: adenoma, dosed 104 weeks, study length 104 weeks",4.64 mg/kg/day
same,TD50,"mouse, strain B6C3F1, males, in feed, site: kidney, lesion: carcinoma, dosed 104 weeks, study length 104 weeks",10.3 mg/kg/day
same,TD50,"mouse, strain B6C3F1, males, in feed, site: kidney, lesion: several types, types named in the paper, dosed 104 weeks, study length 104 weeks",3.53 mg/kg/day
same,TD50,"mouse, strain B6C3F1, males, in feed, site: liver, lesion: hepatocellular adenoma, dosed 104 weeks, study length 104 weeks",48.1 mg/kg/day
same,TD50,"mouse, strain B6C3F1, males, in feed, site: liver, lesion: hepatocellular carcinoma, dosed 104 weeks, study length 104 weeks",58.7 mg/kg/day
same,carcinogen call,"rat, strain DA (from Hannover), females, by gavage, site: kidney, lesion: one or several types, types not named, dosed 110 weeks, study length 110 weeks",negative (inactive)
same,TD50,"rat, strain DA (from Hannover), males, by gavage, site: kidney, lesion: adenocarcinoma, dosed 110 weeks, study length 110 weeks",0.368 mg/kg/day
same,TD50,"rat, strain DA (from Hannover), males, by gavage, site: urinary bladder, lesion: transitional-cell carcinoma, dosed 110 weeks, study length 110 weeks",1.18 mg/kg/day
same,TD50,"rat, strain Fischer 344, females, by gavage, site: kidney + mammary gland, lesion: tubule adenoma + tubule carcinoma + fibroadenoma, dosed 103 weeks, study length 104 weeks",0.386 mg/kg/day
same,TD50,"rat, strain Fischer 344, females, by gavage, site: kidney, lesion: tubule adenoma + tubule carcinoma, dosed 103 weeks, study length 104 weeks",0.485 mg/kg/day
same,TD50,"rat, strain Fischer 344, females, by gavage, site: kidney, lesion: tubule adenoma, dosed 103 weeks, study length 104 weeks",0.813 mg/kg/day
same,TD50,"rat, strain Fischer 344, females, by gavage, site: kidney, lesion: tubule carcinoma, dosed 103 weeks, study length 104 weeks",1.31 mg/kg/day
same,TD50,"rat, strain Fischer 344, females, by gavage, site: mammary gland, lesion: fibroadenoma, dosed 103 weeks, study length 104 weeks",0.55 mg/kg/day
same,TD50,"rat, strain Fischer 344, males, by gavage, site: any site (literature study), lesion: several types, types named in the paper, dosed 103 weeks, study length 104 weeks",0.0863 mg/kg/day
same,TD50,"rat, strain Fischer 344, males, by gavage, site: kidney, lesion: tubule adenoma + tubule carcinoma + tubule epithelium adenoma + tubular-cell carcinoma, bilateral, dosed 103 weeks, study length 104 weeks",0.0579 mg/kg/day
same,TD50,"rat, strain Fischer 344, males, by gavage, site: kidney, lesion: tubule adenoma + tubule epithelium adenoma, dosed 103 weeks, study length 104 weeks",0.241 mg/kg/day
same,TD50,"rat, strain Fischer 344, males, by gavage, site: kidney, lesion: tubule carcinoma + tubular-cell carcinoma, bilateral, dosed 103 weeks, study length 104 weeks",0.0756 mg/kg/day
same,TD50,"rat, strain Fischer 344, males, by gavage, site: liver, lesion: hepatocellular adenoma + hepatocellular carcinoma + neoplastic nodule, dosed 103 weeks, study length 104 weeks",2.5 mg/kg/day
same,TD50,"rat, strain Lewis, females, by gavage, site: kidney, lesion: adenocarcinoma, dosed 110 weeks, study length 110 weeks",2.56 mg/kg/day
same,TD50,"rat, strain Lewis, males, by gavage, site: kidney, lesion: adenocarcinoma, dosed 110 weeks, study length 110 weeks",1.25 mg/kg/day
same,carcinogen call,"rat, strain Wistar, both sexes, by gavage, site: any site (literature study), lesion: one or several types, types not named, dosed 50 weeks, study length 110 weeks",negative (inactive)
